Experimental data reported in ChEMBL document CHEMBL3232928, “Fragment-to-hit-to-lead discovery of a novel pyridylurea scaffold of ATP competitive dual targeting type II topoisomerase inhibiting antibacterial agents” (J Med Chem, 2013).
≈ marks a conversion by molar mass, not a printed value.

Experiments:
Staphylococcus aureus [1] = test: Inhibition of DNA synthesis in methicillin-sensitive wild type Staphylococcus aureus over 1 hr by [3H]thymidine incorporation assay; type: functional, organism-based
Streptococcus pneumoniae [2] = test: Inhibition of fatty acid synthesis in Streptococcus pneumoniae D39 over 1 hr by [14C]acetic acid incorporation assay; type: functional; details: D39, 1 h
Staphylococcus aureus [3] = test: Inhibition of cell wall synthesis in methicillin-sensitive wild type Staphylococcus aureus over 1 hr by [14C]N-acetyl glucosamine incorporation assay; type: functional, organism-based
Staphylococcus aureus [4] = test: Inhibition of fatty acid synthesis in methicillin-sensitive wild type Staphylococcus aureus over 1 hr by [14C]acetic acid incorporation assay; type: functional, organism-based
Staphylococcus aureus [5] = test: Inhibition of protein synthesis in methicillin-sensitive wild type Staphylococcus aureus over 1 hr by [14C]valine incorporation assay; type: functional, organism-based
Staphylococcus aureus [6] = test: Inhibition of RNA synthesis in methicillin-sensitive wild type Staphylococcus aureus over 1 hr by [3H]uridine incorporation assay; type: functional, organism-based
Streptococcus pneumoniae [7] = test: Inhibition of DNA synthesis in Streptococcus pneumoniae D39 over 1 hr by [3H]thymidine incorporation assay; type: functional
Streptococcus pneumoniae [8] = test: Inhibition of RNA synthesis in Streptococcus pneumoniae D39 over 1 hr by [3H]uridine incorporation assay; type: functional
Streptococcus pneumoniae [9] = test: Inhibition of protein synthesis in Streptococcus pneumoniae D39 over 1 hr by [14C]leucine incorporation assay; type: functional; details: D39, 1 h
Streptococcus pneumoniae [10] = test: Inhibition of cell wall synthesis in Streptococcus pneumoniae D39 over 1 hr by [14C]N-acetyl glucosamine incorporation assay; type: functional; details: D39, 1 h
Streptococcus pneumoniae [11] = test: Inhibition of protein synthesis in Streptococcus pneumoniae D39 over 1 hr by [14C]valine incorporation assay; type: functional; details: D39, 1 h
Staphylococcus aureus [12] = test: Inhibition of protein synthesis in methicillin-sensitive wild type Staphylococcus aureus over 1 hr by [14C]leucine incorporation assay; type: functional, organism-based
[13] = Inhibition of ATPase activity in Escherichia coli ParC/ParE by ammonium molybdate/malachite green-based absorbance assay
[14] = Dissociation constant, pKa of the compound; type: physicochemical
Escherichia coli [15] = test: Antibacterial activity against wild type Escherichia coli W3110 assessed as growth inhibition after 18 to 24 hrs by CLSI broth microdilution method; type: functional
Moraxella catarrhalis = test: Antibacterial activity against wild type Moraxella catarrhalis ATCC 43617 assessed as growth inhibition after 18 to 24 hrs by CLSI broth microdilution method; type: functional
[16] = Inhibition of ATPase activity in Escherichia coli GyrA/GyrB by ammonium molybdate/malachite green-based absorbance assay
[17] = Antibacterial activity against Streptococcus pneumoniae D39 NCTC 7466 assessed as growth inhibition after 18 to 24 hrs by CLSI broth microdilution method; type: functional
Staphylococcus aureus [18] = test: Antibacterial activity against methicillin-sensitive wild type Staphylococcus aureus assessed as growth inhibition after 18 to 24 hrs by CLSI broth microdilution method; type: functional
[19] = Solubility of the compound; type: physicochemical
Escherichia coli [20] = test: Antibacterial activity against tolC efflux pump deficient Escherichia coli W3110 assessed as growth inhibition after 18 to 24 hrs by CLSI broth microdilution method; type: functional
[21] = Unbound fraction in human at 10 uM after 16 hrs by LC-MS/MS analysis; type: ADME; details: plasma
[22] = Inhibition of ATPase activity in Escherichia coli ParE by ammonium molybdate/malachite green-based absorbance assay
[23] = Octanol-phosphate buffer partition coefficient, log D of the compound at pH 7.4 after 1 hr by shake flask method; type: physicochemical
DNA gyrase subunit B = DNA gyrase subunit B (Staphylococcus aureus, UniProt P0A0K8); test: Inhibition of ATPase activity in Staphylococcus aureus GyrB tetramer in presence of Escherichia coli GyrA by ammonium molybdate/malachite green-based absorbance assay
[24] = Antibacterial activity against wild type Haemophilus influenzae Rd KW20 ATCC 51907 assessed as growth inhibition after 18 to 24 hrs by CLSI broth microdilution method; type: functional
[25] = Clearance in rat plasma at 10 mg/kg, iv administered 15 mins of infusion measured for 0 to 24 hrs by LC-MS/MS analysis; type: ADME, organism-based; design: dose 10 mg/kg, route intravenous
Staphylococcus aureus [26] = test: Antibacterial activity against methicillin-resistant and […] Staphylococcus aureus assessed as growth inhibition after 18 to 24 hrs by CLSI broth microdilution method; type: functional
[27] = Volume of distribution at steady state in rat plasma at 10 mg/kg, iv administered 15 mins of infusion measured for 0 to 24 hrs by LC-MS/MS analysis; type: ADME, organism-based; design: dose 10 mg/kg, route intravenous; details: read-out: Vdss
[28] = Antibacterial activity against fluoroquinolone-resistant Streptococcus pneumoniae D39 NCTC 7466 expressing GyrB/ParE T172A mutant assessed as growth inhibition after 18 to 24 hrs by CLSI broth microdilution method; type: functional
[29] = Antibacterial activity against fluoroquinolone-resistant Streptococcus pneumoniae D39 NCTC 7466 expressing ParE/GyrB K143I mutant assessed as growth inhibition after 18 to 24 hrs by CLSI broth microdilution method; type: functional
[30] = Antibacterial activity against fluoroquinolone-resistant Streptococcus pneumoniae D39 NCTC 7466 expressing GyrB T172A/ParE T172A double mutant assessed as growth inhibition after 18 to 24 hrs by CLSI broth microdilution method; type: functional
[31] = Antibacterial activity against fluoroquinolone-resistant Streptococcus pneumoniae D39 NCTC 7466 expressing GyrA S81Y/ParC S79F double mutant assessed as growth inhibition after 18 to 24 hrs by CLSI broth microdilution method; type: functional
[32] = Antibacterial activity against fluoroquinolone-resistant Streptococcus pneumoniae D39 NCTC 7466 expressing ParE/GyrB T172A mutant assessed as growth inhibition after 18 to 24 hrs by CLSI broth microdilution method; type: functional
[33] = Antibacterial activity against fluoroquinolone-resistant Streptococcus pneumoniae D39 NCTC 7466 expressing GyrA S81F/ParC S79Y double mutant assessed as growth inhibition after 18 to 24 hrs by CLSI broth microdilution method; type: functional
[34] = Antibacterial activity against fluoroquinolone-resistant Streptococcus pneumoniae D39 NCTC 7466 expressing GyrA S81F/ParC S79F double mutant assessed as growth inhibition after 18 to 24 hrs by CLSI broth microdilution method; type: functional
Streptococcus pneumoniae [35] = test: microbe, parasite or virus in culture
Description: Antibacterial activity against wild type Streptococcus pneumoniae assessed as growth inhibition after 18 to 24 hrs by CLSI broth microdilution method

[36] = Antibacterial activity against fluoroquinolone-resistant Streptococcus pneumoniae D39 NCTC 7466 expressing GyrB K143A/ParE T172A double mutant assessed as growth inhibition after 18 to 24 hrs by CLSI broth microdilution method; type: functional

Sequence of DNA gyrase subunit B (P0A0K8 whole entry): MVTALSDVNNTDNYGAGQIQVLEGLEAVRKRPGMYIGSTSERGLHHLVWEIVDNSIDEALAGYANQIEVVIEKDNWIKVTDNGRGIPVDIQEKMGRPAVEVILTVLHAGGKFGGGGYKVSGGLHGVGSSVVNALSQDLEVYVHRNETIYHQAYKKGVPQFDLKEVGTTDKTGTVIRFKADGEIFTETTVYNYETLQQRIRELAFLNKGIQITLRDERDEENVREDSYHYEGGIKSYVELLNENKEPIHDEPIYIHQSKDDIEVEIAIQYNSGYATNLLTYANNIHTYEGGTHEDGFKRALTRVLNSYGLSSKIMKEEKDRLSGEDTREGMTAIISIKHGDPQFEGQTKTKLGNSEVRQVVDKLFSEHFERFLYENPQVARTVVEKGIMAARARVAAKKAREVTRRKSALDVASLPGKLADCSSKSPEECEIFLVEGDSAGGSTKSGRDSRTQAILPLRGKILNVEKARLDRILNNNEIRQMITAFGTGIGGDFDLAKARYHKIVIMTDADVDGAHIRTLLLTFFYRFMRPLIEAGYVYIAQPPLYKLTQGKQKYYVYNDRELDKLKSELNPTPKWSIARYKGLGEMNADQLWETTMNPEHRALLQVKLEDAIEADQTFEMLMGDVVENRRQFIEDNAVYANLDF

Compound	IC50 [13] [nM]	MIC (Escherichia coli [15]) [µg/mL]	MIC (Moraxella catarrhalis) [µg/mL]	IC50 [16] [nM]	MIC [17] [µg/mL]	MIC (Staphylococcus aureus [18]) [µg/mL]	solubility [19] [µM]	MIC (Escherichia coli [20]) [µg/mL]	fraction unbound at 16 h, 10 µM [21]	IC50 [22] [nM]	logD at 1 h [23]	IC50 (DNA gyrase subunit B) [nM]	MIC [24] [µg/mL]	clearance [25] [mL/min/kg]	MIC (Staphylococcus aureus [26]) [µg/mL]	Vd [27] [L/kg]	other results
O=C(O)c1cn(C2CC2)c2cc(N3CCNCC3)c(F)cc2c1=O [CIPROFLOXACIN]																	IC50 (Staphylococcus aureus [1]): 3900 nM; IC50 (Streptococcus pneumoniae [2]): > 200000 nM; IC50 (Staphylococcus aureus [3]): > 195000 nM; IC50 (Staphylococcus aureus [4]): > 195000 nM; IC50 (Staphylococcus aureus [5]): > 195000 nM; IC50 (Staphylococcus aureus [6]): > 195000 nM; IC50 (Streptococcus pneumoniae [7]): 28000 nM; IC50 (Streptococcus pneumoniae [8]): > 200000 nM; IC50 (Streptococcus pneumoniae [9]): 110000 nM; IC50 (Streptococcus pneumoniae [10]): > 200000 nM; IC50 (Streptococcus pneumoniae [11]): > 200000 nM; IC50 (Staphylococcus aureus [12]): > 174000 nM
CCNC(=O)Nc1cc(-c2nc(C(F)(F)F)cs2)c(-c2cncc(-c3nnn[nH]3)c2)cn1	260	> 64	> 64	< 10	1.4 (≈ 3.03 µM)	> 64	240 (≈ 111 µg/mL)	23 (≈ 49.8 µM)	0.14	< 10	-0.38	< 10	> 64				pKa [14]: 3.7
CCNC(=O)Nc1cc(-c2nc(C(F)(F)F)cs2)c(-c2cncc(-c3nc(C)no3)c2)cn1	1400	> 64	0.74 (≈ 1.56 µM)	< 10	< 0.095	0.37 (≈ 0.778 µM)	< 1	0.74 (≈ 1.56 µM)	0.063	25	3.4	52	> 64	100	0.19 (≈ 0.4 µM)	11	
CN(C)[C@@H]1C(O)=C(C(N)=O)C(=O)[C@@]2(O)C(O)=C3C(=O)c4c(O)cccc4[C@@](C)(O)[C@H]3C[C@@H]12 [TETRACYCLINE]																	MIC [28]: 0.25 µg/mL (≈ 0.563 µM); MIC [29]: 0.25 µg/mL (≈ 0.563 µM); MIC [30]: 0.25 µg/mL (≈ 0.563 µM); MIC [31]: 0.25 µg/mL (≈ 0.563 µM); MIC [32]: 0.25 µg/mL (≈ 0.563 µM); MIC [33]: 0.13 µg/mL (≈ 0.293 µM); MIC [34]: 0.13 µg/mL (≈ 0.293 µM); MIC (Streptococcus pneumoniae [35]): 0.25 µg/mL (≈ 0.563 µM); MIC [36]: 0.25 µg/mL (≈ 0.563 µM)
CCNC(=O)Nc1cc(-c2nc(C(F)(F)F)cs2)c(-c2cncc(-c3nnc(C)o3)c2)cn1	510	> 64	0.37 (≈ 0.778 µM)	< 10	0.05 (≈ 0.105 µM)	0.19 (≈ 0.4 µM)	1 (≈ 0.475 µg/mL)	0.26 (≈ 0.547 µM)	0.11	15	2.4	< 10	33 (≈ 69.4 µM)	123	0.26 (≈ 0.547 µM)	3.3	
CCNC(=O)Nc1cc(-c2nc(C(F)(F)F)cs2)c(-c2cncc(C(=O)O)c2)cn1	510	> 64	64 (≈ 146 µM)	< 10	2 (≈ 4.57 µM)	> 64	800 (≈ 350 µg/mL)	16 (≈ 36.6 µM)	0.082	< 10	-0.62	< 10	> 64				pKa [14]: 3.7
CO[C@@H]1[C@@H](OC(N)=O)[C@@H](O)[C@H](Oc2ccc3c(O)c(NC(=O)c4ccc(O)c(CC=C(C)C)c4)c(=O)oc3c2C)OC1(C)C [NOVOBIOCIN]																	MIC [28]: 0.25 µg/mL (≈ 0.408 µM); MIC [29]: 1 µg/mL (≈ 1.63 µM); MIC [30]: 4 µg/mL (≈ 6.53 µM); MIC [31]: 0.25 µg/mL (≈ 0.408 µM); MIC [32]: 2 µg/mL (≈ 3.26 µM); MIC [33]: 0.25 µg/mL (≈ 0.408 µM); MIC [34]: 0.25 µg/mL (≈ 0.408 µM); MIC (Streptococcus pneumoniae [35]): 0.5 µg/mL (≈ 0.816 µM); MIC [36]: 4 µg/mL (≈ 6.53 µM)
C[C@H]1COc2c(N3CCN(C)CC3)c(F)cc3c(=O)c(C(=O)O)cn1c23.C[C@H]1COc2c(N3CCN(C)CC3)c(F)cc3c(=O)c(C(=O)O)cn1c23.O [LEVOFLOXACIN]						0.13									4		MIC [28]: 1 µg/mL; MIC [29]: 1 µg/mL; MIC [30]: 0.5 µg/mL; MIC [31]: 16 µg/mL; MIC [32]: 0.5 µg/mL; MIC [33]: 32 µg/mL; MIC [34]: 16 µg/mL; MIC [36]: 0.5 µg/mL
CCNC(=O)Nc1cc(-c2nc(C(F)(F)F)cs2)c(-c2cncc(-c3noc(=O)[nH]3)c2)cn1	1500	> 64	24 (≈ 50.3 µM)	< 10	0.74 (≈ 1.55 µM)	48 (≈ 101 µM)	830 (≈ 396 µg/mL)	12 (≈ 25.1 µM)	0.011	11	0.28	14	> 64	360	48 (≈ 101 µM)	3.5	pKa [14]: 5.4
CCNC(=O)Nc1cc(-c2nc(C(F)(F)F)cs2)c(-c2cncc(C#N)c2)cn1	1100	> 64	0.33 (≈ 0.789 µM)	< 10	< 0.084	0.33 (≈ 0.789 µM)	7 (≈ 2.93 µg/mL)	0.33 (≈ 0.789 µM)	0.059	< 10	2.8	< 10	21 (≈ 50.2 µM)	110	0.23 (≈ 0.55 µM)	3.4	
CCNC(=O)Nc1cc(-c2nc(C(F)(F)F)cs2)c(-c2cncc(C(N)=O)c2)cn1	960	> 64	0.7 (≈ 1.6 µM)	17	0.09 (≈ 0.206 µM)	2.7 (≈ 6.19 µM)	26 (≈ 11.3 µg/mL)	1.6 (≈ 3.67 µM)	0.36	12	2	< 10	5.5 (≈ 12.6 µM)	120	1.4 (≈ 3.21 µM)	1.5	IC50 (Staphylococcus aureus [1]): 1600 nM; IC50 (Streptococcus pneumoniae [2]): > 20000 nM; IC50 (Staphylococcus aureus [3]): > 200000 nM; IC50 (Staphylococcus aureus [4]): > 200000 nM; IC50 (Staphylococcus aureus [5]): 31000 nM; IC50 (Staphylococcus aureus [6]): 6900 nM; IC50 (Streptococcus pneumoniae [7]): 460 nM; IC50 (Streptococcus pneumoniae [8]): 830 nM; IC50 (Streptococcus pneumoniae [9]): 860 nM; IC50 (Streptococcus pneumoniae [10]): > 20000 nM; IC50 (Streptococcus pneumoniae [11]): 1200 nM; IC50 (Staphylococcus aureus [12]): 8800 nM
